# Data reported in patent US20070111251A1, “Chemical address tags” (priority 2003, published 2007).
# System: live UACC-62 human melanoma cells
# Experiment: Organelle-binding test: subcellular localization of styryl library compounds by fluorescence microscopy
# Format: cell-based
# Design: key to experimentally determined localization (subscript): The subscript m indicates experimentally determined mitochondrial localization; The subscript o indicates experimentally determined non-mitochondrial localization
# Conditions: FIG. 5, live UACC-62 cells
# Description: The synthesis was designed so that the reaction mixture can be used directly in biological screening; toxic catalysts (e.g., such as strong acids, bases, and metals) were avoided, and most of the low-boiling point solvents and catalysts (e.g., pyrrolidine) were removed during the microwave reaction, leaving only DMSO, a common solvent for biological sample preparation. In some embodiments, without further purification, the library compounds were incubated with live UACC-62 human melanoma cells growing on glass bottom 96-well plates, and the localizations of the different compounds in the cells were determined using an Axiovert (Carl Zeiss, Inc., Thornwood, N.Y.) microscope (λex=405, 490, and 570 nm; λem>510 nm) with a 100× Zeiss oil immersion objective. […] The images in FIG. 5 show cells stained with selected fluorescent compounds.
# Unless otherwise noted in this example, the materials and solvents were obtained from commercial suppliers and were used without further purification. The plate reader used in this example was a Spectra Max Gemini XSF (Molecular Devices, Corp., Sunnyvale, Calif.). In preferred embodiments, for organelle-binding tests, UACC-62 melanoma cells were selected amongst a panel of 60 human cancer cell lines, because their well-spread morphology on glass made them ideally suited for imaging purposes as well as their relevance to biomedical research. (See e.g., R. H. Shoemaker et al., Development of human tumor cell line panels for use in disease oriented drug screening. In: Hall, T. ed., Prediction of Response to Anti-cancer Chemotherapy, New York N.Y.: Alan Liss, 265-286 [1988]).
# In some of these embodiments, UACC-62 cells (obtained from the Developmental Therapeutics Program at the National Cancer Institute) were grown in RPMI medium supplemented with 10% fetal calf serum. For microscopy, cells were plated on 96 well tissue-culture plates (Falcon) overnight, in RPMI plus 10% fetal calf serum, at 37° C. in 5% CO2/95% air. Cells were incubated with compounds at an approximate concentration of 50 μM for 1 hour.
# A Zeiss Axiovert 135M (Carl Zeiss, Inc., Thornwood, N.Y.) inverted fluorescence microscope outfitted with a FITC/TRITC multipass filter cube (Chroma Technology, Corp., Rockingham, Vt.) was used for screening and routine cell biological fluorescence imaging applications. In some embodiments, epifluorescence microscopy was performed using a Zeiss Axiovert epifluorescence microscope equipped with a 20× objective.
# The library compounds, without further purification, were incubated with live UACC-62 human melanoma cells growing on glass bottom 96-well plates (Sigma-Aldrich Corp., St. Louis, Mo.), and the localizations of the different compounds in the cells were determined by an inverted fluorescence microscope (λex=405, 490, and 570 nm; λem>510 nm) at 1000× magnification. Based on their morphology and subcellular distribution, the localizations were ascribed to mitochondria, ER (endoplasmic reticulum), nucleoli, nuclear, and cytoplasmic staining patterns such as diffuse (based on the homogenous staining appearance and exclusion from the nucleus), granular (punctate staining pattern, generally associated with the cell margins) or vesicular (heterogeneous staining pattern, generally associated with the nuclear periphery). Localization studies were performed without a priori information of the compounds' molecular structures. It was possible to ascribe the localization of the compounds to nucleus or cytoplasm, as these organelles are clearly discernible with phase contrast optics. Similarly, it was possible to ascribe localization to nucleoli, as these structures appeared as the most prominent, phase-dense structures within the nucleus. Localization to mitochondria was based on the elongated, characteristic shape of these organelles, which stain positive with established mitochondrial-specific fluorescent probes, like […] or JC-1. (L. B. Chen, Methods Cell Bio., 29:103-123 [1989]). […]
row,Compound,representative localization
1,COc1ccc2c(ccc(/C=C/c3ccc(N(C)C)cc3)[n+]2C)c1.[I-] [Compound 119],nucleolar
2,COc1ccc2c(ccc(C=CC=Cc3ccc(N(C)C)cc3)[n+]2C)c1.[I-] [Compound 137],cytosolic
3,C[n+]1ccc(C=Cc2ccc(OCc3ccccc3)c(OCc3ccccc3)c2)cc1.[I-] [Compound A12-B1],mitochondria
4,C(=Cc1c[nH]c2ccccc12)c1cc[n+](C23CC4CC(CC(C4)C2)C3)cc1.[Br-] [Compound A24-B2],mitochondria

# Same assay, conditions: mitochondrial vs non-mitochondrial, live UACC-62 cells
row,Compound,experimentally determined localization (subscript)
1,C[n+]1ccc(C=CCc2ccccc2)cc1.[I-] [Compound A1-B1],o
2,C(=Cc1cc[n+](C23CC4CC(CC(C4)C2)C3)cc1)Cc1ccccc1.[Br-] [Compound A1-B2],o
3,C[n+]1c(C=CCc2ccccc2)ccc2ccccc21.[I-] [Compound A1-B8],m
4,COc1ccc2c(ccc(C=CCc3ccccc3)[n+]2C)c1.[I-] [Compound A1-B9],m
5,Cc1ccnc(-c2cc(C=CCc3ccccc3)cc[n+]2C)c1.[I-] [Compound A1-B10],m
6,COc1ccc(C=Cc2ccc3cc(OC)ccc3[n+]2C)cc1.[I-] [Compound A10-B9],o
7,C[n+]1ccc(C=Cc2ccc(OCc3ccccc3)c(OCc3ccccc3)c2)cc1.[I-] [Compound A12-B1],m
8,C[n+]1ccccc1C=Cc1ccc(OCc2ccccc2)c(OCc2ccccc2)c1.[I-] [Compound A12-B3],m
9,CCc1ccc(C=Cc2ccc(OCc3ccccc3)c(OCc3ccccc3)c2)[n+](C)c1.[I-] [Compound A12-B5],o
10,C[n+]1ccc(C=Cc2ccc(OCc3ccccc3)c(OCc3ccccc3)c2)c2ccccc21.[I-] [Compound A12-B7],m
11,Cc1cccc(C=Cc2ccc(OCc3ccccc3)c(OCc3ccccc3)c2)[n+]1C.[I-] [Compound A12-B12],o
12,Cc1cc(C)[n+](C)c(C=Cc2ccc(OCc3ccccc3)c(OCc3ccccc3)c2)c1.[I-] [Compound A12-B13],o
13,COc1ccc(C=Cc2cc[n+](C34CC5CC(CC(C5)C3)C4)cc2)c2ccccc12.[Br-] [Compound A14-B2],o
14,COc1ccc(C=Cc2ccc3ccccc3[n+]2C)cc1O.[I-] [Compound A15-B8],m
15,Oc1ccc(C=Cc2cc[n+](C34CC5CC(CC(C5)C3)C4)cc2)cc1.[Br-] [Compound A16-B2],m
16,CC(=O)Nc1ccc(C=Cc2ccc3ccccc3[n+]2C)cc1.[I-] [Compound A18-B8],m
17,COc1ccc2c(ccc(C=Cc3ccc(NC(C)=O)cc3)[n+]2C)c1.[I-] [Compound A18-B9],o
18,CN(C)c1ccc(C=Cc2ccc3ccccc3[n+]2C)cc1.[I-] [Compound A19-B8],o
19,C[n+]1ccc(C=Cc2ccccc2[N+](=O)[O-])c2ccccc21.[I-] [Compound A20-B7],m
20,C[n+]1c(C=Cc2cccc([N+](=O)[O-])c2)ccc2ccccc21.[I-] [Compound A21-B8],m
21,COc1ccc2c(ccc(C=Cc3cccc([N+](=O)[O-])c3)[n+]2C)c1.[I-] [Compound A21-B9],o
22,COc1ccc2ccccc2c1C=Cc1cc[n+](C)cc1.[I-] [Compound A23-B1],m
23,COc1ccc2ccccc2c1C=Cc1cccc[n+]1C.[I-] [Compound A23-B3],o
24,COc1ccc2ccccc2c1C=Cc1c(C)ccc[n+]1C.[I-] [Compound A23-B4],o
25,C[n+]1ccc(C=Cc2c[nH]c3ccccc23)cc1.[I-] [Compound A24-B1],o
26,C(=Cc1c[nH]c2ccccc12)c1cc[n+](C23CC4CC(CC(C4)C2)C3)cc1.[Br-] [Compound A24-B2],m
